This passage reports Ki results from BindingDB's records for doi:10.1016/j.bioorg.2016.01.003 (Panjab University, 2016).

Common to all, as to test: Radioligand Binding Assay
The target in one test is Adenosine receptor A2a (Homo sapiens, UniProt P29274). The protocol: (§1) Dissociation constants at A1, A2A and A3 receptors (Ki-values) were determined in radioligand competition experiments as reported earlier [19,20]. All binding experiments were done in a microplate format utilizing a 96-well microplate filtration system (Millipore Multiscreen MAFC). As radioligands the agonists [3H]CCPA (1 nM) for A1, [3H]NECA (10 nM) for A2A, and [3H]HEMADO (1 nM) for A3 receptors were used. Samples were incubated with 10 µg of membrane protein for 3 h at 25 °C, filtered through the built-in filter at the bottom of the wells and washed three times with […] of ice-cold binding buffer. After addition of 20 µl of scintillator to the dried filter plates samples were counted in a Wallac Micro-Beta counter. Nonspecific binding was determined in the presence of 1 mM theophylline ([3H]CCPA) or […] (N6-phenylisopropyladenosine; [3H]NECA and [3H] HEMADO).

The next test addresses T1, Adenosine receptor A1 (Homo sapiens, UniProt P30542).
T1 sequence (P30542 whole entry): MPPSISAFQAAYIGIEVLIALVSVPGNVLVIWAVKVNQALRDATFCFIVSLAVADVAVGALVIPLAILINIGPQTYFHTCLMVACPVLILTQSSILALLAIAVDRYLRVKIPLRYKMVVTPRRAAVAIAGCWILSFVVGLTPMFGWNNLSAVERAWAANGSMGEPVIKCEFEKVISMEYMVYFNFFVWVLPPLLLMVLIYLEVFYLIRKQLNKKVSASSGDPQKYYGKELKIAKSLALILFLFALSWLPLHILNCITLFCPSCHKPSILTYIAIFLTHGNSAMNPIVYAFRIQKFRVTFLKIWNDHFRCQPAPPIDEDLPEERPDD
The protocol:
as §1

The target of a further test is T2, Adenosine receptor A2b (Homo sapiens, UniProt P29275).
T2 sequence (P29275 whole entry): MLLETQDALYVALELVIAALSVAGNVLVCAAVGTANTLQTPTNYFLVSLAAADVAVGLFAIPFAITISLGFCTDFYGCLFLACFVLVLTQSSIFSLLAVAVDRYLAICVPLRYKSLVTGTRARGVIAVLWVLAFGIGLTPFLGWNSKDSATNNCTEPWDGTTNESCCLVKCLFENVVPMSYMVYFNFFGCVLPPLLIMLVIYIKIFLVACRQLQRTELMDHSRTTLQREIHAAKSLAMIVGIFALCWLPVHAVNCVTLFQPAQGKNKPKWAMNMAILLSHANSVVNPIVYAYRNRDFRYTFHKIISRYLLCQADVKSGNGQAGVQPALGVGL

Adenosine receptor A2a, sequence (P29274 whole entry): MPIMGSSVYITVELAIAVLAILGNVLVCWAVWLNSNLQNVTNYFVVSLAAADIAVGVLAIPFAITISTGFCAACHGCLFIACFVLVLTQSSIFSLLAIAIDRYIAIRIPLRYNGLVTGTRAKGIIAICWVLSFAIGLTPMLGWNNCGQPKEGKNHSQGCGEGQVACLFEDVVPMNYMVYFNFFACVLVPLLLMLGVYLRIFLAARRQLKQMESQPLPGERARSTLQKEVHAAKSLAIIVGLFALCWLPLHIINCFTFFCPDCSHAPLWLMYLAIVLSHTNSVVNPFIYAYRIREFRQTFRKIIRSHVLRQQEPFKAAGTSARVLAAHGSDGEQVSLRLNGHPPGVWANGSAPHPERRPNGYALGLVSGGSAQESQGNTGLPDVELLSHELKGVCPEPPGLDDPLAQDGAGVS

A word on the Ki: it is the equilibrium dissociation constant of an inhibitor or competing ligand from its target. Lower therefore signals higher affinity. Consider `COC(=O)COc1cccc(-c2nc3c([nH]2)c(=O)n(C)c(=O)n3C)c1` [1,3-Dimethyl-8-[3-(2-methoxy-2-oxoethoxy)-phenyl]xanthine (14, RB-374)], for which the figures for the Ki at Adenosine receptor A2a, at Adenosine receptor A1 and on Adenosine receptor A2b were 375 nM, 3950 nM and greater than 10000 nM, respectively.
For the compound `COc1cc(-c2nc3c([nH]2)c(=O)n(C)c(=O)n3C)ccc1OCC(=O)N1CCN(C)CC1` [1,3-Dimethyl-8-[3-methoxy-4-{2-(1-methylpiperazin-4-yl)-2-oxoethoxy}-phenyl]-xanthine (15g, RB-446)], the figures for the inhibition constant Ki at Adenosine receptor A2a, at Adenosine receptor A1 and on Adenosine receptor A2b were 4210 nM, greater than 30000 nM and greater than 10000 nM, respectively.
For the compound `COc1cc(-c2nc3c([nH]2)c(=O)n(C)c(=O)n3C)ccc1OCC(=O)N1CCOCC1` [1,3-Dimethyl-8-[3-methoxy-4-{2-(morpholin-1-yl)-2-oxoethoxy}-phenyl]xanthine (15f, RB-385)], the Ki on Adenosine receptor A2a is 2740 nM; at Adenosine receptor A1, greater than 30000 nM; on Adenosine receptor A2b, greater than 30000 nM.
Turning to `COc1cc(-c2nc3c([nH]2)c(=O)n(C)c(=O)n3C)ccc1OCC(=O)N1CCCCC1` [1,3-Dimethyl-8-[3-methoxy-4-{2-(piperidin-1-yl)-2-oxoethoxy}-phenyl]xanthine (15d, RB-391)], the figures for the Ki on Adenosine receptor A2a, on Adenosine receptor A1 and at Adenosine receptor A2b were 3350 nM, greater than 30000 nM and greater than 10000 nM, respectively.
In the case of `COc1cc(-c2nc3c([nH]2)c(=O)n(C)c(=O)n3C)ccc1OCC(=O)N1CCCC1` [1,3-Dimethyl-8-[3-methoxy-4-{2-(pyrrolidin-1-yl)-2-oxoethoxy}-phenyl]xanthine (15c, RB-392)], the Ki on Adenosine receptor A2a was 4570 nM; on Adenosine receptor A1, greater than 30000 nM; at Adenosine receptor A2b, greater than 30000 nM.
With `CN1CCN(C(=O)COc2cccc(-c3nc4c([nH]3)c(=O)n(C)c(=O)n4C)c2)CC1` [1,3-Dimethyl-8-[3-{2-(1-methylpiperazin-4-yl)-2-oxoethoxy}-phenyl]xanthine (14g, RB-380)], the inhibition constant (Ki) was found to be 561 nM on Adenosine receptor A2a, 1900 nM at Adenosine receptor A1 and 8210 nM at Adenosine receptor A2b.
Take `CN(C)CCNC(=O)COc1cccc(-c2nc3c([nH]2)c(=O)n(C)c(=O)n3C)c1` [1,3-Dimethyl-8-[3-{2-(dimethylaminoethylamino)-2-oxoethoxy}-phenyl]xanthine (14a, RB-379)]: the inhibition constant (Ki) on Adenosine receptor A2a was 163 nM; on Adenosine receptor A1, 683 nM; at Adenosine receptor A2b, 2830 nM.
The matching figures for `Cn1c(=O)c2[nH]c(-c3cccc(OCC(=O)N4CCCCCC4)c3)nc2n(C)c1=O` [1,3-Dimethyl-8-[3-{2-(hexamethyleneimin-1-yl)-2-oxoethoxy}-phenyl]xanthine (14e, RB-376)]: 226 nM, 2430 nM and 6280 nM.
Turning to `COc1ccc(CCNC(=O)COc2cccc(-c3nc4c([nH]3)c(=O)n(C)c(=O)n4C)c2)cc1OC` [1,3-Dimethyl-8-[3-{2-(homoveratrylamino)-2-oxoethoxy}-phenyl]xanthine (14i, RB-377)], the figures for the Ki at Adenosine receptor A2a, on Adenosine receptor A1 and on Adenosine receptor A2b were 1390 nM, 5980 nM and greater than 10000 nM, respectively.
Turning to `Cn1c(=O)c2[nH]c(-c3cccc(OCC(=O)n4ccnc4)c3)nc2n(C)c1=O` [1,3-Dimethyl-8-[3-{2-(imidazol-1-yl)-2-oxoethoxy}-phenyl]xanthine (14h, RB-445)], the Ki is 509 nM on Adenosine receptor A2a, greater than 30000 nM at Adenosine receptor A1 and greater than 30000 nM at Adenosine receptor A2b.
With `Cn1c(=O)c2[nH]c(-c3cccc(OCC(=O)N4CCOCC4)c3)nc2n(C)c1=O` [1,3-Dimethyl-8-[3-{2-(morpholin-1-yl)-2-oxoethoxy}-phenyl]xanthine (14f, RB-375)], the results for the inhibitory constant (Ki) at Adenosine receptor A2a, on Adenosine receptor A1 and on Adenosine receptor A2b were 679 nM, 5370 nM and greater than 10000 nM, respectively.
As for `Cn1c(=O)c2[nH]c(-c3cccc(OCC(=O)N4CCCCC4)c3)nc2n(C)c1=O` [1,3-Dimethyl-8-[3-{2-(piperidin-1-yl)]-2-oxoethoxy}-phenyl]xanthine (14d, RB-382)], the inhibition constant Ki on Adenosine receptor A2a was 209 nM; at Adenosine receptor A1, 1520 nM; on Adenosine receptor A2b, 4040 nM.
The matching figures for `Cn1c(=O)c2[nH]c(-c3cccc(OCC(=O)N4CCCC4)c3)nc2n(C)c1=O` [1,3-Dimethyl-8-[3-{2-(pyrrolidin-1-yl)-2-oxoethoxy}-phenyl]xanthine (14c, RB-381)]: 237 nM, 3290 nM and greater than 10000 nM.
In the case of `COC(=O)COc1ccc(-c2nc3c([nH]2)c(=O)n(C)c(=O)n3C)cc1` [1,3-Dimethyl-8-[4-(2-methoxy-2-oxoethoxy)-phenyl]xanthine (13, RB-419)], the Ki stood at 170 nM at Adenosine receptor A2a, 319 nM on Adenosine receptor A1 and 980 nM at Adenosine receptor A2b.
For the compound `COc1ccc(-c2nc3c([nH]2)c(=O)n(C)c(=O)n3C)cc1OCC(=O)N1CCN(C)CC1` [1,3-Dimethyl-8-[4-methoxy-3-{2-(1-methylpiperazin-4-yl)-2-oxo-ethoxy}-phenyl]xanthine (16g, RB-416)], the figures for the Ki on Adenosine receptor A2a, at Adenosine receptor A1 and on Adenosine receptor A2b were 685 nM, 3640 nM and 6540 nM, respectively.
Consider `COc1ccc(-c2nc3c([nH]2)c(=O)n(C)c(=O)n3C)cc1OCC(=O)N1CCCCC1` [1,3-Dimethyl-8-[4-methoxy-3-{2-(piperidin-1-yl)-2-oxoethoxy}-phenyl]xanthine (16d, RB-417)], for which the values for the Ki at Adenosine receptor A2a, on Adenosine receptor A1 and on Adenosine receptor A2b were 76 nM, 1620 nM and greater than 10000 nM, respectively.
Turning to `COc1ccc(-c2nc3c([nH]2)c(=O)n(C)c(=O)n3C)cc1OCC(=O)N1CCCC1` [1,3-Dimethyl-8-[4-methoxy-3-{2-(pyrrolidin-1-yl)-2-oxoethoxy}-phenyl]xanthine (16c, RB-414)], the Ki on Adenosine receptor A2a was 259 nM; at Adenosine receptor A1, 5940 nM; on Adenosine receptor A2b it was greater than 10000 nM.
On to `COc1ccc(-c2nc3c([nH]2)c(=O)n(C)c(=O)n3C)cc1OCC(=O)N1CCOCC1` [1,3-Dimethyl-8-[4-methoxy-3-{(2-(morpholin-1-yl)-2-oxoethoxy}-phenyl]-xanthine (16f, RB-415)], for which the figures for the Ki at Adenosine receptor A2a, on Adenosine receptor A1 and at Adenosine receptor A2b were 466 nM, 3510 nM and greater than 10000 nM, respectively.
On to `CN(C)CCNC(=O)COc1ccc(-c2nc3c([nH]2)c(=O)n(C)c(=O)n3C)cc1` [1,3-Dimethyl-8-[4-{2-(dimethylaminoethylamino)-2-oxoethoxy}-phenyl]xanthine (13a, RB-420)], for which the inhibitory constant (Ki) at Adenosine receptor A2a was 100 nM; at Adenosine receptor A1, 220 nM; on Adenosine receptor A2b, 903 nM.
The matching figures for `Cn1c(=O)c2[nH]c(-c3ccc(OCC(=O)N4CCCCCC4)cc3)nc2n(C)c1=O` [1,3-Dimethyl-8-[4-{2-(hexamethyleneimin-1-yl)-2-oxoethoxy}-phenyl]xanthine (13e, RB-424)]: 273 nM, 609 nM and 443 nM.
Take `Cn1c(=O)c2[nH]c(-c3ccc(OCC(=O)N4CCCCC4)cc3)nc2n(C)c1=O` [1,3-Dimethyl-8-[4-{2-(piperidin-1-yl)-2-oxoethoxy}-phenyl]xanthine (13d, RB-427)]: the inhibition constant (Ki) was 178 nM at Adenosine receptor A2a, 419 nM at Adenosine receptor A1 and 401 nM at Adenosine receptor A2b.
The matching figures for `Cn1c(=O)c2[nH]c(-c3ccc(OCC(=O)N4CCCC4)cc3)nc2n(C)c1=O` [1,3-Dimethyl-8-[4-{2-(pyrrolidin-1-yl)-2-oxoethoxy}-phenyl]xanthine (13c, RB-426)]: 122 nM, 796 nM and 1490 nM.
Turning to `COc1ccc(-c2nc3c([nH]2)c(=O)n(C)c(=O)n3C)cc1OCC(=O)NCCN(C)C` [1,3-Dimethyl-8-[{3-(2-(dimethylaminoethylamino)-2-oxoethoxy)-4-methoxy}-phenyl]-xanthine (16a, RB-413)], the inhibition constant (Ki) on Adenosine receptor A2a was found to be 75 nM; on Adenosine receptor A1, 847 nM; on Adenosine receptor A2b, 4800 nM.
For the compound `COc1ccc(-c2nc3c([nH]2)c(=O)n(C)c(=O)n3C)cc1OCC(=O)N1CCCCCC1` [1,3-Dimethyl-8-[{3-(2-(hexamethyleneimin-1-yl)-2-oxoethoxy)-4-methoxy}-phenyl]xanthine (16e, RB-449)], the inhibitory constant (Ki) at Adenosine receptor A2a was 94 nM; at Adenosine receptor A1, 1910 nM; at Adenosine receptor A2b, 3940 nM.
With `COc1ccc(CCNC(=O)COc2cc(-c3nc4c([nH]3)c(=O)n(C)c(=O)n4C)ccc2OC)cc1OC` [1,3-Dimethyl-8-[{3-(2-(homoveratrylamino)-2-oxoethoxy)-4-methoxy}-phenyl]xanthine (16i, RB-412)], the values for the Ki on Adenosine receptor A2a, on Adenosine receptor A1 and on Adenosine receptor A2b were 772 nM, greater than 30000 nM and greater than 30000 nM, respectively.
